Experimental data reported in PubChem BioAssay (NCI).
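The compound was tested at five concentrations on cells cultured in 96-well plates, with a 48-hour exposure period. TGI: total growth inhibition.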

Columns and labels:
Test in all cases: growth of human tumour cells (NCI), 48 h
HCC-2998 colon = test system: HCC-2998 colon
IGROV1 ovarian = test system: IGROV1 ovarian
KM12 colon = test system: KM12 colon
SK-MEL-2 melanoma = test system: SK-MEL-2 melanoma
HT29 colon = test system: HT29 colon
MDA-N = test system: MDA-N
UACC-62 melanoma = test system: UACC-62 melanoma
HS 578T breast = test system: HS 578T breast
MDA-MB-231 breast = test system: MDA-MB-231 breast
RPMI-8226 leukemia = test system: RPMI-8226 leukemia

| Compound | TGI (HCC-2998 colon) | TGI (IGROV1 ovarian) | TGI (KM12 colon) | TGI (SK-MEL-2 melanoma) | TGI (HT29 colon) | TGI (MDA-N) | TGI (UACC-62 melanoma) | TGI (HS 578T breast) | TGI (MDA-MB-231 breast) | TGI (RPMI-8226 leukemia) |
| --- | --- | --- | --- | --- | --- | --- | --- | --- | --- | --- |
| C[C@H](CCC(=O)NCCS(=O)(=O)O)[C@H]1CC[C@H]2[C@@H]3CC[C@@H]4C[C@H](O)CC[C@]4(C)[C@H]3CC[C@]12C | > 100 µM | > 100 µM | > 100 µM | > 100 µM | > 100 µM | > 100 µM | > 100 µM | > 100 µM | > 100 µM | > 100 µM |
| Oc1ccc(-c2nc(-c3cccnc3)c(-c3ccc(Cl)cc3)[nH]2)cc1O | 26.6 µM | 18.6 µM | 21.2 µM | 31.8 µM | 27.7 µM | 25.1 µM | 23.3 µM | 36.4 µM | 47.8 µM | > 100 µM |
| Nn1c(COc2cccc(OCc3n[nH]c(=S)n3N)c2)n[nH]c1=S | > 100 µM | > 100 µM | > 100 µM | > 100 µM | > 100 µM | > 100 µM | > 100 µM | > 100 µM | > 100 µM | > 100 µM |
| COC(=O)NCCc1[nH]nc2c1C(=O)C=C(N1CCOCC1)C2=O | > 100 µM | > 100 µM | > 100 µM | > 100 µM | > 100 µM | > 100 µM | > 100 µM | > 100 µM | > 100 µM | > 100 µM |
| CCSc1sc(=Nc2ccc(N=c3sc(C)c(SC)s3)cc2)sc1-c1ccc(C)cc1 | > 100 µM | > 100 µM | > 100 µM | > 100 µM | > 100 µM | > 100 µM | > 100 µM | > 100 µM | > 100 µM | > 100 µM |
| Nc1ncnc2c1nnn2C1C=CC(COS(N)(=O)=O)C1 (configuration not stated) | 76.2 µM | > 100 µM | 86.3 µM | 21.4 µM | 98.5 µM | 19 µM | 35.4 µM | 8.3 µM | > 100 µM | 50.7 µM |
| CC(=O)N=C1N(/C=C2\C(=O)Oc3ccccc3C2=O)C(=O)/C(=C/c2ccc(OC(C)=O)cc2)N1C | > 100 µM | > 100 µM | > 100 µM | > 100 µM | > 100 µM | > 100 µM | > 100 µM | > 100 µM | > 100 µM | > 100 µM |
| COC(=O)c1c(O)ccc2c1c1c(n2Cc2ccccc2Cl)C(=O)c2ccccc2C1=O | 29.9 µM | 28.3 µM | 24.1 µM | 33.8 µM | 3.58 µM | 31.1 µM | 30.2 µM | 59 µM | 32.3 µM | 29.5 µM |
| CCCCC(C#N)(OP1(=O)OC(c2ccccc2)C(C)N1C)c1ccccc1 (configuration not stated) | 28.9 µM | 32.3 µM | 37.2 µM | 34.2 µM | 33.8 µM | 31.3 µM | 29.4 µM | 39.3 µM | 30.2 µM | 53.2 µM |
| CN(C)CCNC(=O)c1cccc2c(NCCN(C)C)c3ccccc3nc12 | 3.73 µM | 10.8 µM | 11.8 µM | 17.6 µM | 5.34 µM | 8.18 µM | 9.19 µM | 8.57 µM | 4.58 µM | 7.92 µM |
| CCN(CC)CC1CCCCN1CC(=O)N1c2ccccc2NC(=O)CC1C (configuration not stated) | > 100 µM | > 100 µM | > 100 µM | > 100 µM | > 100 µM | > 100 µM |  | > 100 µM | > 100 µM | > 100 µM |
| BrCCCCCOc1ccc(-c2c3ccccc3c(-c3ccc(OCCCCCBr)cc3)c3ccccc23)cc1 | > 100 µM | > 100 µM | > 100 µM | > 100 µM | > 100 µM | > 100 µM | > 100 µM | > 100 µM | > 100 µM | > 100 µM |
| O=C1CCC2(CC1CC(Sc1ccccc1)Sc1ccccc1)OCCO2 (configuration not stated) | > 100 µM | > 100 µM | > 100 µM | > 100 µM | > 100 µM | > 100 µM | > 100 µM | 88.1 µM | > 100 µM | > 100 µM |
| COC(=O)CCC(=O)NC1=C(NCc2ccccc2)C(=O)c2ccccc2C1=O | > 100 µM | 53.7 µM | > 100 µM | 67.1 µM | > 100 µM | 29.6 µM | 33.1 µM | > 100 µM | 85.7 µM | > 100 µM |
| S=C(NC1=NCC(CN2CCN(c3ccccc3)CC2)O1)Nc1ccccc1 (configuration not stated) | > 100 µM | > 100 µM | > 100 µM | > 100 µM | > 100 µM | > 100 µM | > 100 µM | > 100 µM | > 100 µM | > 100 µM |
| O=C(/C=C/c1ccc(O)c(O)c1)OCCCc1ccccc1 | 39.5 µM | 12.1 µM |  | 46.4 µM | 48.4 µM | 31.3 µM | 23.6 µM | 74.5 µM | 25.2 µM | 49.4 µM |
| COC(=O)C1=C(C(=O)OC)C(C(=O)c2ccc(Br)cc2)N2N=C(c3ccc(Cl)cc3)C=CC12 (configuration not stated) | > 100 µM | > 100 µM | > 100 µM | > 100 µM |  | > 100 µM | > 100 µM | > 100 µM | > 100 µM | > 100 µM |
